Reference: PubChem BioAssay AID2060343 (Molecular Pharmacology Branch, DTP, NCI, 2025)

Tested on: 138582-337-R-J1-PDC spheroids with HUVEC/MSC, viability
Assay: Anticancer human tumor 138582-337-R-J1-PDC patient-derived Merkel cell tumor cell line growth inhibition [IpAb]
Conditions: for IC50: curve of first compound; for viability, T/C: stronger effect = lower value
Method in brief: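 Multi-cell spheroids of 60% tumour cells, 25% HUVEC and 15% MSC in ultra-low-attachment U-bottom wells, treated with agents combined with ipatasertib or abemaciclib. Half-log ranges top out near clinical Cmax, or 10 microM when Cmax is unknown.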

[1] = second compound 0.01 µM, first compound 0.0316 µM
[2] = second compound 0.01 µM, first compound 0.1 µM
[3] = second compound 0.0316 µM, first compound 0.0316 µM
[4] = second compound 0.0316 µM, first compound 0.1 µM
[5] = second compound 0.1 µM, first compound 0.0316 µM
[6] = second compound 0.1 µM, first compound 0.1 µM
[7] = second compound 0.316 µM, first compound 0.0316 µM
[8] = second compound 0.316 µM, first compound 0.1 µM
[9] = second compound 1 µM, first compound 0.0316 µM
[10] = second compound 1 µM, first compound 0.1 µM
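Note: spheroids exposed to compounds for seven days.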
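Throughout, for viability, T/C: 100% = DMSO vehicle control viability.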

Cn1ncc(Cl)c1-c1cc(C(=O)NC(CN)Cc2cccc(F)c2)sc1Cl (stereo not given) + CCN1CCN(Cc2ccc(Nc3ncc(F)c(-c4cc(F)c5nc(C)n(C(C)C)c5c4)n3)nc2)CC1
IC50 (second compound 0.01 µM): 1.5 µM
IC50 (second compound 0.0316 µM): 1.27 µM
IC50 (second compound 0.1 µM): 1.2 µM
IC50 (second compound 0.316 µM): 1.19 µM
IC50 (second compound 1 µM): 0.792 µM
viability, T/C [1]: 88.8%
viability, T/C [2]: 73.4%
viability, T/C (second compound 0.01 µM, first compound 0.316 µM): 61.9%
viability, T/C (second compound 0.01 µM, first compound 1 µM): 50.3%
viability, T/C (second compound 0.01 µM, first compound 3.16 µM): 50.6%
viability, T/C (second compound 0.01 µM, first compound 10 µM): 0.19%
viability, T/C [3]: 83.8%
viability, T/C [4]: 70.8%
viability, T/C (second compound 0.0316 µM, first compound 0.316 µM): 58.5%
viability, T/C (second compound 0.0316 µM, first compound 1 µM): 50.2%
viability, T/C (second compound 0.0316 µM, first compound 3.16 µM): 45.4%
viability, T/C (second compound 0.0316 µM, first compound 10 µM): 0.24%
viability, T/C [5]: 84.4%
viability, T/C [6]: 84.6%
viability, T/C (second compound 0.1 µM, first compound 0.316 µM): 61.1%
viability, T/C (second compound 0.1 µM, first compound 1 µM): 48.9%
viability, T/C (second compound 0.1 µM, first compound 3.16 µM): 40.7%
viability, T/C (second compound 0.1 µM, first compound 10 µM): 0.17%
viability, T/C [7]: 92.8%
viability, T/C [8]: 81.8%
viability, T/C (second compound 0.316 µM, first compound 0.316 µM): 68%
viability, T/C (second compound 0.316 µM, first compound 1 µM): 52.1%
viability, T/C (second compound 0.316 µM, first compound 3.16 µM): 35.3%
viability, T/C (second compound 0.316 µM, first compound 10 µM): 0.21%
viability, T/C [9]: 94.2%
viability, T/C [10]: 95.3%
viability, T/C (second compound 1 µM, first compound 0.316 µM): 70.3%
viability, T/C (second compound 1 µM, first compound 1 µM): 39.9%
viability, T/C (second compound 1 µM, first compound 3.16 µM): 25.1%
viability, T/C (second compound 1 µM, first compound 10 µM): 0.27%

Cn1ncnc1[C@H]1c2n[nH]c(=O)c3cc(F)cc(c23)N[C@@H]1c1ccc(F)cc1 + CCN1CCN(Cc2ccc(Nc3ncc(F)c(-c4cc(F)c5nc(C)n(C(C)C)c5c4)n3)nc2)CC1
IC50 (second compound 0.01 µM): > 0.1 µM
IC50 (second compound 0.0316 µM): > 0.1 µM
IC50 (second compound 0.1 µM): > 0.1 µM
IC50 (second compound 0.316 µM): > 0.1 µM
IC50 (second compound 1 µM): > 0.1 µM
viability, T/C (second compound 0.01 µM, first compound 0.000316 µM): 102%
viability, T/C (second compound 0.01 µM, first compound 0.001 µM): 93.4%
viability, T/C (second compound 0.01 µM, first compound 0.00316 µM): 91.8%
viability, T/C (second compound 0.01 µM, first compound 0.01 µM): 80.7%
viability, T/C [1]: 78.5%
viability, T/C [2]: 78.9%
viability, T/C (second compound 0.0316 µM, first compound 0.000316 µM): 96.3%
viability, T/C (second compound 0.0316 µM, first compound 0.001 µM): 102%
viability, T/C (second compound 0.0316 µM, first compound 0.00316 µM): 89.5%
viability, T/C (second compound 0.0316 µM, first compound 0.01 µM): 76.5%
viability, T/C [3]: 69.8%
viability, T/C [4]: 66.2%
viability, T/C (second compound 0.1 µM, first compound 0.000316 µM): 89.7%
viability, T/C (second compound 0.1 µM, first compound 0.001 µM): 89.4%
viability, T/C (second compound 0.1 µM, first compound 0.00316 µM): 76.7%
viability, T/C (second compound 0.1 µM, first compound 0.01 µM): 78.4%
viability, T/C [5]: 90.8%
viability, T/C [6]: 86.4%
viability, T/C (second compound 0.316 µM, first compound 0.000316 µM): 85%
viability, T/C (second compound 0.316 µM, first compound 0.001 µM): 95.8%
viability, T/C (second compound 0.316 µM, first compound 0.00316 µM): 87.2%
viability, T/C (second compound 0.316 µM, first compound 0.01 µM): 80.3%
viability, T/C [7]: 78.3%
viability, T/C [8]: 72.4%
viability, T/C (second compound 1 µM, first compound 0.000316 µM): 99%
viability, T/C (second compound 1 µM, first compound 0.001 µM): 95.7%
viability, T/C (second compound 1 µM, first compound 0.00316 µM): 87.3%
viability, T/C (second compound 1 µM, first compound 0.01 µM): 79.5%
viability, T/C [9]: 90.9%
viability, T/C [10]: 91.2%
